Assay results published in US4209612A, “Fortimicin factors KF and KG and process for production thereof” (Abbott Laboratories, priority 1977, dated 1980).
≈ marks a conversion by molar mass, not a printed value. Entries after “also recorded” stand apart in the source; their conditions may differ.

How the values were obtained:
[1] = tested on: Proteus vulgaris ATCC 6897; test: Minimum inhibitory concentration, agar dilution method at pH 8.0; assay type: cell-based; conditions: ATCC6897
Text: (§1) In the following Table 4, the antibacterial spectra of Fortimicin KF and Fortimicin KG against various microorganisms are set forth.
(§2) (Minimum Inhibitory Concentration, γ/ml measured by
(§3) agar dilution method at pH 8.0)

[2] = tested on: Klebsiella pneumoniae ATCC 10031; test: as above; assay type: cell-based; conditions: ATCC10031
Text: as §1, §2, §3

[3] = tested on: Bacillus subtilis No. 10707; test: as above; assay type: cell-based
Text: as §1, §2, §3

[4] = tested on: Salmonella typhosa ATCC 9992; test: as above; assay type: cell-based; conditions: Salmonella enterica
Text: as §1, §2, §3

[5] = tested on: Escherichia coli ATCC 26; test: as above; assay type: cell-based; conditions: ATCC26
Text: as §1, §2, §3

[6] = tested on: Staphylococcus aureus ATCC 6538P; test: as above; assay type: cell-based; conditions: ATCC6538P
Text: as §1, §2, §3

[7] = tested on: Shigella sonnei ATCC 9290; test: as above; assay type: cell-based; conditions: ATCC9290
Text: as §1, §2, §3

[8] = Solubility of the free base; assay type: physicochemical; conditions: for solubility in organic solvents / solubility in ethanol and acetone / solubility in methanol / solubility in water: free base; for solubility in organic solvents: chloroform, benzene, ethyl acetate, butyl acetate, ether, butanol, petroleum ether, n-hexane
[9] = tested on: Bacillus subtilis No. 10707; test: Antibacterial activity of the preparate (units/mg), paper disc method; assay type: cell-based
Method: After the completion of fermentation, the culture liquor is adjusted to pH 2.5 with concentrated sulfuric acid and is stirred for 30 minutes. Thereafter, about 7 kg of a filter aid, Radiolite No. 600 (product of Showa Kagaku Kogyo Co., Ltd.) is added to the culture liquor and the microbial cells are removed by filtration. The filtrate is adjusted to pH 7.5 by the addition of 6 N sodium hydroxide. The resulting filtrate is passed through a column packed with about 20 L. of a cation exchange resin, Amberlite IRC-50 (ammonia form). The active principles are adsorbed on the resin. After the resin is washed with water, elution of the active principles is carried out with 1 N aqueous ammonia. The eluate is subjected to determination of activity by a paper disc method using an agar plate of Bacillus subtilis No. 10707. Fractions showing activity are combined and concentrated under reduced pressure to about 1 L. The concentrate is passed through a column packed with 500 ml of an anion exchange resin, Dowex 1×2 (OH form) and then about 2 L. of water is passed through the column. In this manner, impurities are removed and the active principles are eluted with water. The active fractions are combined and concentrated under reduced pressure to about 100 ml. The concentrate is then passed through a column packed with about 50 ml of active carbon powder. The active principles are adsorbed on the active carbon. The column is washed with water. The effluent and washings are discarded. Elution is then carried out with 0.2 N sulfuric acid. The eluate is subjected to determination of activity by a paper disc method using Bacillus subtilis No. 10707. The active fractions are combined and passed through a column of an anion exchange resin, Dowex 44 (OH form) and elution of the active principles is carried out with water. The active fractions are combined and concentrated to about 60 ml. The concentrate is then freeze-dried to obtain a crude powder of Fortimicin complex. The yield of the crude powder is about 40 g.
(§4) The powder is charged over about 500 ml of silica gel in a glass column to form a uniform, thin layer. The silica gel is previously suspended in a mixed solvent of chloroform, ethanol, concentrated aqueous ammonia and acetone (2:2:1:2 by volume), and packed in the glass column to form a tight, uniform layer. The column is then thoroughly washed with the same solvent. After the crude powder is charged, the solvent having the same composition as described above is poured gradually into the column from the top and thereafter elution is carried out continuously at a flow rate of 50 ml/hour. The eluate is recovered in 20 ml fractions and the activity of each of the fractions is determined by a paper disc method using Bacillus subtilis No. 10707. First, Fortimicin KF is eluted followed by Fortimicin A and Fortimicin D. The active fractions are subjected to thin layer chromatography. The fractions containing Fortimicin KF are collected and concentrated under reduced pressure to remove the solvent.
The residue is dissolved in a small amount of water and then the solution is freeze-dried to obtain about 2 g of a purified preparate of the free base of Fortimicin KF.
as §4, with “This powder” for “The powder”, “the” for “the crude”, “10707. […]” for “10707. First, Fortimicin KF is eluted followed by Fortimicin A and Fortimicin D. The active fractions are subjected to thin layer chromatography. The fractions containing Fortimicin KF are collected and concentrated under reduced pressure to remove the solvent.”

[10] = tested on: Gram-positive and Gram-negative bacteria; test: Antibacterial spectrum (overall); assay type: cell-based; conditions: in words
Text: as §1, §2, §3

[11] = Example 3, before cellulose column chromatography
[12] = Example 3, purified preparate of the free base after cellulose column chromatography
[13] = purified preparate of the free base, Examples 1 and 2 (1 mg of a pure preparate defined as 1000 units)

SMILES | MIC [1] | MIC [2] | MIC [3] | MIC [4] | MIC [5] | MIC [6] | MIC [7] | solubility in organic solvents [8] | solubility in ethanol and acetone [8] | solubility in methanol [8] | solubility in water [8] | solubility in the ordinary organic solvents [8] | activity [9, 11] | activity [9, 12] | activity ([9]; Example 4) | activity [9, 13] | antibacterial activity [10] | antibacterial activity ([10]; listed as KF) | antibacterial activity ([10]; listed as KG)
CNC1C(O)C(OC2OC(CN)=CCC2N)C(N)C(O)C1OC (stereo not drawn) [Fortimicin KF] | 4.2 µg/mL (≈ 12.6 µM) | 4.2 µg/mL (≈ 12.6 µM) | 4.2 µg/mL (≈ 12.6 µM) | 4.2 µg/mL (≈ 12.6 µM) | 4.2 µg/mL (≈ 12.6 µM) | 2.1 µg/mL (≈ 6.32 µM) | 8.4 µg/mL (≈ 25.3 µM) | insoluble | slightly soluble | soluble | readily soluble; also recorded: very soluble | poorly soluble | 860 units/mg | 980 units/mg | 985 units/mg | about 970 units/mg | strong antibacterial activity against a broad range of Gram-positive and Gram-negative bacteria | broad antibacterial activity | –
CNC1C(O)C(OC2OC(C(C)N)=CCC2N)C(N)C(O)C1OC (stereo not drawn) [Fortimicin KG] | 4.5 µg/mL (≈ 13 µM) | 4.5 µg/mL (≈ 13 µM) | 4.5 µg/mL (≈ 13 µM) | 2.3 µg/mL (≈ 6.64 µM) | 4.5 µg/mL (≈ 13 µM) | 1.1 µg/mL (≈ 3.18 µM) | 9 µg/mL (≈ 26 µM) | insoluble | slightly soluble | soluble | readily soluble; also recorded: very soluble | poorly soluble | 860 units/mg | 980 units/mg | 985 units/mg | about 970 units/mg | strong antibacterial activity against a broad range of Gram-positive and Gram-negative bacteria | – | broad antibacterial activity
